# In paper PMC13327620, “A Deep‐Red‐Absorbing Osmium(II) Complex as a Photosensitizer for Photodynamic Therapy Inducing Immunogenic Cell Death” (Angewandte Chemie (International Ed. in English), 2026):
# Tests used:
# HMGB‐1 = assay: Immunofluorescence staining of HMGB-1 (release) in CT26 cells; format: cell-based, mouse; conditions: CT26, compounds at IC50, illumination at 740 and 770 nm
# Experimental: Scientific, Catalog no.15 5411) at a d ensity of 8,00 0 cells p er well and cultu red fo r 24 h at 37 °C with 5 % CO2. T he cells wer e then treated with a solution of the compounds at a concentration corresponding to the IC50 for 4 h. After refreshing the medium, cells were subjected to irradiation and incubated for an additional 12 h. Subsequently, the cells were fix ed with 4% paraformaldehyde and immunostained with Anti- Calreticulin antibody (Abcam, Catalog no. ab2907) diluted 1/1000 at 4 °C overnight. Cells were then washed three times with PBS, treated with Goat Anti- Rabbit IgG H&L (Alexa […]
# temperature in the dark, washed in PBS and treat ed with 10 µg/mL Hoechst for 15 min.
# After a final wash, cells were analyzed by confocal microscopy as det ailed above.
# Immunofluorescence st aining of HMGB-1
# CT26 or MCA205 cells were seeded in Lab -Te k ® Chambered Coverglass System (Thermo Fisher Scientific, Catalog no.155411) at a density of 8,000 cells per well and cultured for 24 h at 37 °C with 5% CO2. The cells were then treated with a solution of the compounds at a concentration corresponding to the IC50 for 4 h. After refreshing the medium, cells were subjected to irradiation and incubated for an additional 12 h.
# Subsequently, the cells were fixed with 4% paraformaldehyde, perm eabilized with 0.2% Triton X-100 and immunostained using anti-HMGB1 antibody [EPR3507] […]
# MCA205 cells = assay: Annexin V-FITC/propidium iodide (AV/PI) cell viability assay by flow cytometry; format: cell-based, mouse; conditions: MCA205, 740 nm LED light illumination
# From the text: Regarding the optimal dose of each drug for in vivo vaccination, we continued to follow the same standards as with CT26‐luc cells, using the concentration of each drug that results in approximately 5% of live cells as the in vivo dose. The testing method remained the same, using the AV/PI dual staining assay. Negative controls still included the untreated group (direct injection of PBS solution) and the non‐ICD inducer Cisplatin. Based on the in vitro HMGB‐1 release results, Ce6 was maintained as the positive control. For a more comprehensive comparison, we also added the platinum‐based chemotherapeutic agent Oxaliplatin as a non‐PS ICD inducer, serving as an additional positive control.
# As the drug concentration increased, the cells gradually shifted to dying (Q3, Annexin V^+/PI^−) or dead (Q2, Annexin V^+/PI^+ and Q1, Annexin V^−/PI^+) state. For MCA205 cells, the concentrations corresponding to approximately 5% cell survival for each drug were 500 µM Cisplatin and 1400 µM Oxaliplatin in the dark, 5.5 µM Ce6 and 3 µM Os2 under 740 nm LED light illumination. […]
# incubated for 24 h. Cells were then treat ed with the determined IC50 of complexes and irradiated or kept in the dark. Supernatants were collected 12 h post-t reatm ent, and the extracellular ATP content was measured with Adenosine 5′ -triphosphate (ATP) Bioluminescent Assay Kit (Sigma-Aldrich) according tomanufacturer ’s ins truction.
# Cell viability assay f o r in vivo by flow cytometry
# CT26-luc or MCA205 cells were seeded in 6-well plates at a density of 1 ×1 05 cells per well and cultured for 24 h at 37 °C with 5% CO 2. The medium was replaced by various concentrations of the compound dilutions in fresh medium.For Ce6 and Os2, after 4 h incubation in the dark, the medium w as r efr eshed and the plates wer e illuminated with a LUMOS-BIO photoreactor (Atlas Photonics), followed by an additional 20- h incubation in the dark. […]
# 556419) and PI (BD Biosciences, Catalog no.51- 66211E). CT26- luc cells were analyzed by flow cytometry (Beckm an Coulter Life Sciences, CytoFLEX LX Flow Cytometer). […]
# IFN‐γ and IL‐17A = assay: Cytokine assay (ELISA) in serum after vaccination; format: in vivo, BALB/c mice; conditions: day 7, compared to Control and Cisplatin groups
# From the text: Encouraged by the excellent performance of Os2 in inducing ICD both in vitro and in vivo, we decided to further evaluate the antitumor immune response following vaccination. A key feature of ICD is its ability to initiate antigen‐specific adaptive immune responses. To assess this, we measured the immune cell response in the spleens and the cytokine levels in the serum of mice 7 days after vaccination (Figures 6A and S28).
# PerCp Cy5.5 (Biolegend, Catalog no.100217, cl one 17A2), anti -CD4- Kiravia 520 (Biolegend, Catalog no. 100477, clone GK1.5), anti-CD8a-BUV496 (Ther mo F i s h er […]
# transcription factor staini ng, the cells were treat ed with True- Nuclear™ Transcription Factor Buffer Set (Biolegend, Catalog no. 424401) after surface staining an d re-stained with fluorescen ce-labeled anti-IFNγ-PE (Biolegend, Catalog no. 505807, clone XMG1.2), anti-FoxP3- BV421 (Biolegend, Catalog no.126419, clone MF-14) and Zombie NIR™Fixable Viability Kit( Biolegend,Catalog no.423105).
# Serum samples were obt ained from the mice on day 7 after treatment. Cytokine was detected using ELISA kits according to the manufacturer ’s instructions: IFN-γ (Biolegend, Catalog no. 430807) and IL -17A ( Bi olegend, Catalog no.432507).
# All the analysis data are given as mean ± SEM. […]
structure (smiles),measurement,setting,value
"C=Cc1c(C)c2cc3nc(c(CC(=O)O)c4[nH]c(cc5nc(cc1[nH]2)C(C)=C5CC)c(C)c4C(=O)O)[C@@H](CCC(=O)O)[C@@H]3C [Ce6, chlorin e6]",HMGB‐1 release,HMGB‐1,a minority
same,Concentration corresponding to approximately 5% cell survival,MCA205 cells,5.5 µM
same,IFN‐γ level in serum,IFN‐γ and IL‐17A,significant increase
same,IL‐17A level in serum,IFN‐γ and IL‐17A,significant increase
